Results published in EP3018135A1, “A COMPOUND WITH ANTI-CARCINOGENIC EFFECT AND A METHOD FOR PRODUCTION OF THIS COMPOUND” (Ulusal Bor Arastirma Enstitusu, priority 2014, dated 2016).

Experiments:
K562 cells [1] = assay: Apoptotic effect by flow cytometry with Annexin V-FITC/7-AAD kit; assay type: cell-based
Source text: (§1) In order to determine anti-carcinogenic effect of the inventive compound acute promyelocytic leukaemia (HL-60) and chronic myelogenous leukaemia (K-562) cells were used to prepare cancer cell cultures under suitable conditions. Both leukemic cell lines were subjected to the following methods: • Determination of cytotoxicity / MTT test; • Determination of apoptotic effect using flow cytometry device with Annexin V-FITC/7-AAD kit; • Determination of apoptotic effect using flow cytometry device with caspase-3/7 activation; • Determination of mitochondrial membrane integrity of cells using JC-1 dyeing method; • Determination of apoptotic DNA using DNA fragmentation method with agarose gel; • Determination of NF-kB and c-myc mRNA expression levels using real time PCR (polymerase chain reaction) method; • Gene panel study using RT-PCR method.

[2] = system: NF-kB and c-myc mRNA expression in HL-60 cells; assay: NF-kB and c-myc mRNA expression levels by real time PCR; assay type: cell-based; settings: RT-PCR
Source text: as §1

[3] = system: NF-kB and c-myc mRNA expression in K562 cells; assay: as above; assay type: cell-based; settings: RT-PCR
Source text: as §1

[4] = system: NF-kB in HCT116 colon cancer cells; settings: cited from earlier work
[5] = system: NF-kB in HT-29 colon cancer cells; settings: cited from earlier work
NF-kB in Caco2 cells = settings: cited from earlier work
[6] = system: NF-kB levels in MM.1S cells; settings: 12 nmol/mL, 12th and 24th hours of incubation, ELISA; cited from earlier work
HL-60 cells [7] = assay: Determination of cytotoxicity / MTT test; assay type: cell-based
Source text: as §1

K562 cells [8] = assay: Determination of cytotoxicity / MTT test; assay type: cell-based
Source text: as §1

HL-60 cell line = assay: Apoptotic effect by flow cytometry with Annexin V-FITC/7-AAD kit; assay type: cell-based
Source text: as §1

HL-60 cells [9] = assay: Mitochondrial membrane integrity, JC-1 dyeing method; assay type: cell-based; settings: 12.5 µM (increase starting from 1.5 µM)
Source text: as §1

K562 cells [10] = assay: as above; assay type: cell-based; settings: 12.5 µM
Source text: as §1

K562 cells [11] = assay: Apoptotic effect by flow cytometry with caspase-3/7 activation; assay type: cell-based; settings: 12.5 µM, 24 hours of incubation
Source text: as §1

[12] = system: NFkB-1, p53, PIK3CA, BCL-3, ICAM1, KRAS and BCR genes in HL-60 cells; assay: Gene panel study by RT-PCR; assay type: cell-based; settings: in comparison to control and Bortezomib groups, decrease more effective than in K562 cells
Source text: as §1
(§2) The genes used in gene panel study with RT-PCR method include; NFKB-1, TNF, RELA, NMI, TP53, IL-6, TP53, PIK3CA, NFKB-2, BCL-3, NFKBIA, RELB, ICAM1, IL-8, KRAS, BCR, GAPDH.

[13] = system: NFkB-1, p53, PIK3CA, BCL-3, ICAM1, KRAS and BCR genes in K562 cells; assay: Gene panel study by RT-PCR; assay type: cell-based; settings: in comparison to control and Bortezomib groups
Source text: as §1, §2

CC(C)C[C@H](NC(=O)[C@H](Cc1ccccc1)NC(=O)c1cnccn1)B(O)O [Bortezomib, reference compound]
early apoptotic cell ratio (K562 cells [1]; K562 cells, 3.12 µM, 24th hour): 18.1% | expression of NF-kB gene [2]: decreases expression | expression of NF-kB gene [3]: decreases expression | NF-kB inhibition [4]: NF-kB inhibition was observed | NF-kB inhibition [5]: NF-kB inhibition was observed | NF-kB inhibition (NF-kB in Caco2 cells): not observed

CC(C)C[C@H](NC(=O)CNC(=O)c1cc(Cl)ccc1Cl)B(O)O [MLN2238]
NF-kB levels [6]: significant decreases

(4-(2-amino-2-(10,11-dioxo-10,11-dihydro-5H-imidaso[1,5,4,3-lmn][1,10]phenanthrolin-5-il]ethyl]phenyl]boronic acid [inventive compound]
IC50 (HL-60 cells [7]; 24th hour): 2160 nM | IC50 (HL-60 cells [7]; 48th hour): 2850 nM | IC50 (K562 cells [8]; 24th hour): 2620 nM | IC50 (K562 cells [8]; 48th hour): 3410 nM | early apoptotic effect (HL-60 cell line; Annexin-V/7-AAD): has not displayed early apoptotic effect | necrotic cell rates (HL-60 cell line; concentrations of 3.12 µM and more, compared to control): increase compared to control | apoptotic cell ratio (K562 cells [1]; K562 cells, 1.5 µM): 13.7% | early and late apoptotic cell rate (K562 cells [1]; K562 cells, 12.5 µM): 38.2% | apoptotic effect (K562 cells [1]; K562 cells, 1.5, 3.12, 6.25 and 12.5 µM, 24th hour): increased the apoptotic effect | early-late apoptotic and necrotic cell rates (K562 cells [1]; K562 cells, concentrations of 6.5 and 12.5 µM, compared to control): increase compared to control | ratio of JC-1 positive cells (HL-60 cells [9]): 37.1% | ratio of JC-1 positive cells (K562 cells [10]): 14.7% | increase in the ratio of caspase 3/7 positive cells, K562 cells in comparison to HL-60 cells (K562 cells [11]): 2 times | c-myc expression [2]: decreased | expression of NF-kB gene [2]: decreases expression | expression of NF-kB gene [3]: decreases expression | c-myc expression ([3]; versus control group): higher than control group values | expression of NFkB-1, p53, PIK3CA, BCL-3, ICAM1, KRAS and BCR genes [12]: decreases expression | expression of NFkB-1, p53, PIK3CA, BCL-3, ICAM1, KRAS and BCR genes [13]: decreases expression
